The compounds below were run against T1, PAR-1 receptor (Cricetulus griseus, UniProt A0A8C2QJ57) (assay: Antagonism of SFLLR-induced calcium release in CHO cells (FLIPR, Fluo-3AM)). Conditions: agonist SFLLR-NH2, Arunlakshana and Schild method from EC50 shifts at three antagonist concentrations.
T1 construct: Chinese hamster ovarian (CHO) cells constituently express PAR-1 receptor; endogenous in cells; host or cells: CHO cells
T1 sequence (A0A8C2QJ57 22-428): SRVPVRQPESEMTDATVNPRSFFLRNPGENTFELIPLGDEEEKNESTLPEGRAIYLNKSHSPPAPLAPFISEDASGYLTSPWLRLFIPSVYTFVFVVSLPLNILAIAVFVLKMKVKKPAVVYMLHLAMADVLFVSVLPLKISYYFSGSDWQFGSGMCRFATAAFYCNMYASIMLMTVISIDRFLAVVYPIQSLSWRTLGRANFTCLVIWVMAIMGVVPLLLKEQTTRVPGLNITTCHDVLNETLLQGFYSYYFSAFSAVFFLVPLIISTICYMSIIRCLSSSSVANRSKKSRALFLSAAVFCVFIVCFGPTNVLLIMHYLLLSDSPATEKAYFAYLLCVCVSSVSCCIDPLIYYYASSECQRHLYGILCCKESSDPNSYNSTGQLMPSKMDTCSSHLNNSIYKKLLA
Assay type: cell-based, Chinese hamster
Experimental: In a variety of cell types, activation of PAR-1 receptors by the SFLLR peptide (a selective PAR-1 agonist) triggers an intracellular signal cascade leading to the release of calcium by the endoplasmic reticulum. Chinese hamster ovarian (CHO) cells constituently express PAR-1 receptor. In this cell line, the release of calcium consecutive to receptor activation by SFLLR is measured by a fluorometry technique (fluorometric imaging plate reader, or FLIPR) using a selective probe for calcium (Fluo-3AM). The emission of fluorescence is pharmacologically proportional to the efficiency of the PAR-1 agonist and to its concentration.
Culture medium: Ham's F-12 (Ham, R. G., Proc. Nat. Acad. Sci. 1965, 53: 288) supplemented with 10% fetal calf serum and […].
Fluorescent probe: Fluo-3AM (4 μM; Teflabs, Austin, Tex., USA)
Agonist: SFLLR-NH2 (Serine, phenylalanine, leucine, leucine, arginine).
Methods: CHO cells are inoculated in 96-well plates (60,000 cells per well) in the presence of 200 μl of culture medium for 24 hours. The cells are incubated with the calcium fluorescent probe for 1 hour at 37° C. The cells are then washed 10 minutes before the signal is measured. PAR-1 antagonist is then injected (0.01 μM to 10 μM). The plates are placed in the FLIPR (Molecular Devices, UK) to measure calcium fluorescence at two wavelengths (488 nm and 540 nm: Sullivan et al., Calcium Signaling Protocols 1999, 125-136). Measurements are taken for 5 min before the antagonist is added and for 10 min following its administration. Maximum fluorescence minus baseline fluorescence is measured in 4 different wells. The test is carried out in duplicate. Under these conditions, the derivatives of the present invention were identified as PAR-1 receptor antagonists (antagonism>60% of the calcium signal at 10 μM). The dose-response curves (0.01 μM to 32 μM) obtained with the SFLLR agonist allowed determination of the effective concentration inducing 50% of the maximum effect (EC50). The strengths (pA2) of some of the PAR-1 antagonists described in the present invention were calculated using the method of Arunlakshana and Schild (Brit. J. Pharmacol., 1959, 14: 48-58) from the EC50 shifts observed at three concentrations.

SMILES	pA2
O=C(C=Cc1ccccc1Br)N1CCN(Cc2ccc(F)cc2)CC1 [Example 3, 3-(2-Bromo-phenyl)-1-[4-(4-fluoro-benzyl)-piperazin-1-yl]-propenone]	6.36
O=C(C=Cc1ccccc1[N+](=O)[O-])N1CCN(Cc2ccc(F)cc2)CC1 [Example 29, 1-[4-(4-Fluoro-benzyl)-piperazin-1-yl]-3-(2-nitro-phenyl)-propenone]	6.98
O=C(C=Cc1c(F)cccc1F)N1CCN(Cc2ccc(F)c(F)c2)CC1 [Example 8, 1-[4-(3,4-Difluoro-benzyl)-piperazin-1-yl]-3-(2,6-difluoro-phenyl)-propenone]	6.32
O=C(C=Cc1ccccc1F)N1CCN(Cc2ccc(F)cc2)CC1 [Example 2, 1-[4-(4-Fluoro-benzyl)-piperazin-1-yl]-3-(2-fluoro-phenyl)-propenone]	6.50
Cc1ccc(CN2CCN(C(=O)C=Cc3ccccc3Cl)CC2)cc1 [Example 4, 3-(2-Chloro-phenyl)-1-[4-(4-methyl-benzyl)-piperazin-1-yl]-propenone]	6.05
Cc1cccc(CN2CCN(C(=O)C=Cc3c(F)cccc3F)CC2)c1 [Example 10, 3-(2,6-Difluoro-phenyl)-1-[4-(3-methyl-benzyl)-piperazin-1-yl]-propenone]	6.46
O=C(C=Cc1ccccc1Cl)N1CCN(Cc2ccccc2F)CC1 [Example 15, 3-(2-Chloro-phenyl)-1-[4-(2-fluoro-benzyl)-piperazin-1-yl]-propenone]	6.39

Same assay, conditions: agonist SFLLR-NH2, Arunlakshana and Schild method from EC50 shifts at three antagonist concentrations, read-out: pA2 (converted)

SMILES	Kb [nM]
O=C(/C=C/c1ccccc1Cl)N1CCN(CC2CCCCC2)CC1 [Example 28, 3-(2-Chloro-phenyl)-1-(4-cyclohexylmethyl-piperazin-1-yl)-]	759
O=C(/C=C/c1ccccc1Cl)N1CCN(Cc2ccc(F)cc2)CC1 [Example 1, 3-(2-Chloro-phenyl)-1-[4-(4-fluoro-benzyl)-piperazin-1-yl]-propenone]	380
O=C(/C=C/c1ccccc1[N+](=O)[O-])N1CCN(CC2CCCCC2)CC1 [Example 25, 1-(4-Cyclohexylmethyl-piperazin-1-yl)-3-(2-nitro-phenyl)-propenone]	166

Reference: US8513258B2, “Cinnamoyl-piperazine derivatives and their use as par-1 antagonists” (Pierre Fabre Medicament, priority 2006, dated 2013)
